Test results as given in patent US9687432B2, “Antimicrobial bispyridine amine compositions and uses” (LONZA INC., priority 2012, dated 2017).

How the values were obtained:
Foam height test = type: physicochemical; details: for foam height, 30 sec / foam height, 1 min / foam height, 2 min / foam height, Initial Reading: 0.5 grams in 49.5 ml DI water; for foam height, 30 sec / foam height, 1 min / foam height, 2 min: 100 ml graduated cylinder; for foam height, Initial Reading: read in 100 ml graduated cylinder with 1 ml line increments; for Type of Foam: 0.5 grams of active in 49.5 ml DI water, blended 1 minute
Description: The testing was performed on samples containing octenidine dihydrochloride, octenidine distearate, PHMB HCl and the chloride salts benzalkonium chloride, benzethonium chloride, and cetylpyridinium chloride.
A 250 ml beaker was filed with 49.5 ml of deionized (DI) water for each sample. Then, 0.5 grams of the active was added to the beaker. Each solution was blended with a Bamix® wand homogenizer/mixer for 1 minute. The solution was then poured into a 100 ml graduated cylinder with 1 ml line increments. The height of the foam was documented at an initial, 30 second, 1 minute, and 2 minute time point.

[1] = test system: Pseudomonas aeruginosa (9027); assay: Minimum Inhibitory Concentration (MIC) test, 96-well microtiter plate; type: cell-based; details: 48 hrs at 36° C., visual inspection
Description: (§1) MICs for the organisms were determined using a standard 96-well microtiter plate assay in Tryptic Soy Broth (TSB) or Sabouraud Dextrose Broth (SDB). A stock solution (2500 ppm) of Octenidine distearate was prepared in methanol and stock solutions (2500 ppm) of Octenidine dihydrochloride and PHMB were prepared in absolute ethanol. […] Fungal inocula were grown up on Sabouraud Dextrose Agar plates (yeast) or Potato Dextrose Agar plates (mold) and mold spores and yeast cells were adjusted to approximately 100,000 per milliliter in Sabouraud Dextrose Broth (pH 5.6). Bacterial and fungal cultures were used to inoculate the serially diluted antimicrobials in the 96 well microplate and the plate was then incubated for 48 hrs at 36° C. The lowest concentration of test compound inhibiting growth at 48 hrs. (as determined by visual inspection) was recorded as the Minimum Inhibitory Concentration (MIC)

[2] = test system: Aspergillus niger (16404); assay: as above; type: cell-based; details: 48 hrs at 36° C., Sabouraud Dextrose Broth
Description: as §1

[3] = test system: Klebsiella pneumoniae (4352); assay: as above; type: cell-based; details: 48 hrs at 36° C., visual inspection
Description: as §1

[4] = test system: Enterococcus hirae (8043); assay: as above; type: cell-based; details: 48 hrs at 36° C., visual inspection
Description: as §1

[5] = test system: Enterobacter gergoviae (33028); assay: as above; type: cell-based; details: 48 hrs at 36° C., visual inspection
Description: as §1

Candida albicans (10231) = assay: as above; type: cell-based; details: 48 hrs at 36° C., Sabouraud Dextrose Broth
Description: as §1

[6] = test system: Gliocladium virens (9645); assay: as above; type: cell-based; details: 48 hrs at 36° C., Sabouraud Dextrose Broth
Description: as §1

Bacillus subtilus (6633) = assay: as above; type: cell-based; details: 48 hrs at 36° C., visual inspection
Description: as §1

[7] = test system: Staphylococcus aureus (6538); assay: as above; type: cell-based; details: 48 hrs at 36° C., visual inspection
Description: as §1

LB penicillium sp. = assay: as above; type: cell-based; details: 48 hrs at 36° C., Sabouraud Dextrose Broth
Description: as §1

Escherichia coli (10536) = assay: as above; type: cell-based; details: 48 hrs at 36° C., visual inspection
Description: as §1

[8] = test system: Pseudomonas aeruginosa (15442); assay: as above; type: cell-based; details: 48 hrs at 36° C., visual inspection
Description: as §1

Paecilomyces sp. = assay: as above; type: cell-based; details: 48 hrs at 36° C., Sabouraud Dextrose Broth
Description: as §1

[9] = test system: Aureobasidium pullulans (9348); assay: as above; type: cell-based; details: 48 hrs at 36° C., Sabouraud Dextrose Broth
Description: as §1

[10] = test system: Penicillium pinophilium (11797); assay: as above; type: cell-based; details: 48 hrs at 36° C., Sabouraud Dextrose Broth
Description: as §1

[11] = test system: Staphylococcus haemolyticus (29970); assay: MIC test against skin microorganisms; type: cell-based; details: 48 hrs at 36° C., two different sets
Description: (§2) MICs for the organisms were determined using a standard 96-well microtiter plate assay in Trypic Soy Broth (TSB). […] Bacteria were grown in Tryptic Soy Broth or Brain Heart Infusion (E. hirae) for 24 hrs and were adjusted to one million cells per milliliter in same type of broth. Following incubation (48 hrs at 36° C.), the lowest concentration of test compound inhibiting growth was recorded as the Minimum Inhibitory Concentration (MIC). The actives were serially diluted and tested at final concentrations ranging from 156.3-0.61 ppm. MIC was run for two different sets.
(§3) Bacteria were grown overnight in Tryptic Soy Brother (TSB) or Brain Heart Infusion (BHI) and were adjusted to approximately 1×10^6 colony forming units per ml (cfu/ml) and used to inoculate the wells. Final bacterial concentration in the test wells was 5×10^5 cfu/ml. For Corynebacterium spp, TSB was used for the first set and BHI for the second set. Inoculated microtiter plates were incubated at 36° C. for 48 hours.
(§4) The lowest concentration of test compound inhibiting growth was recorded as the minimum inhibitory concentration.

[12] = test system: Bacillus licheniformis (14580); assay: MIC test against skin microorganisms; type: cell-based; details: 48 hrs at 36° C., two different sets
Description: as §2, §3, §4

[13] = test system: Corynebacterium minutissimum (23348); assay: MIC test against skin microorganisms; type: cell-based; details: 48 hrs at 36° C., TSB first set, BHI second set
Description: as §2, §3, §4

[14] = test system: Corynebacterium xerosis (373); assay: MIC test against skin microorganisms; type: cell-based; details: 48 hrs at 36° C., TSB first set, BHI second set
Description: as §2, §3, §4

CC(C)(C)CC(C)(C)c1ccc(OCCOCC[N+](C)(C)Cc2ccccc2)cc1 [Benzethonium Chloride, benzethonium chloride]
foam height, 30 sec (Foam height test): 107
foam height, 1 min (Foam height test): 107
foam height, 2 min (Foam height test): 106
foam height, Initial Reading (Foam height test): 107
Type of Foam (Foam height test): Tight

polyhexamethylene biguanide hydrochloride [PHMB]
Minimum Inhibitory Concentration (MIC) [1]: 2.44 ppm
Minimum Inhibitory Concentration (MIC) [2]: 2.44 ppm
Minimum Inhibitory Concentration (MIC) [3]: 1.22-2.44 ppm ^
Minimum Inhibitory Concentration (MIC) [4]: 2.44 ppm
Minimum Inhibitory Concentration (MIC) [5]: 1.22-2.44 ppm ^
Minimum Inhibitory Concentration (MIC) (Candida albicans (10231)): 0.61 ppm
Minimum Inhibitory Concentration (MIC) [6]: 0.61 ppm
Minimum Inhibitory Concentration (MIC) (Bacillus subtilus (6633)): 0.31-0.61 ppm ^
Minimum Inhibitory Concentration (MIC) [7]: 1.22-2.44 ppm ^
Minimum Inhibitory Concentration (MIC) (LB penicillium sp.): 1.22 ppm
Minimum Inhibitory Concentration (MIC) (Escherichia coli (10536)): 1.22 ppm
Minimum Inhibitory Concentration (MIC) [8]: 4.88 ppm
Minimum Inhibitory Concentration (MIC) (Paecilomyces sp.): 1250-5000 ppm
Minimum Inhibitory Concentration (MIC) [9]: 1.22 ppm
Minimum Inhibitory Concentration (MIC) [10]: 2.44 ppm
foam height, 30 sec (Foam height test): 85
foam height, 1 min (Foam height test): 80
foam height, 2 min (Foam height test): 75
foam height, Initial Reading (Foam height test): 87
Type of Foam (Foam height test): Slightly loose

benzalkonium chloride
foam height, 30 sec (Foam height test): 103
foam height, 1 min (Foam height test): 102
foam height, 2 min (Foam height test): 102
foam height, Initial Reading (Foam height test): 103
Type of Foam (Foam height test): Tight

Polyhexamethylene biguanide stearate [PHMBS]
MIC (ppm) [11]: 2.44-4.88 ppm
MIC (ppm) [12]: 2.44-4.88 ppm
MIC (ppm) [13]: 0.61-4.88 ppm
MIC (ppm) [14]: 9.76 ppm
